“And” between values parts separate entries of the source, which are not always exact repeats. Equal values may be shown once.
What was measured:
[1] = system: BT-474; assay: normalised viability (% of control), CellTiter-Blue; higher = more viable cells (about 100 = DMSO control); conditions: incubation time: 72 h
Summary of the method: (§1)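 The reported quantity is normalised viability at a single listed concentration of the series. Compound in 5 µl medium was pre-dispensed into 384-well plates and 20 µl of breast cancer cell suspension was added for 72 h. A 2 h, 37 °C CellTiter-Blue step (2.5 µl) preceded fluorescence reading at 560/590 nm, and plates were normalised to vehicle (100) and a positive kill control (0).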

[2] = system: CAL-148; assay: as above; conditions: incubation time: 72 h
Summary of the method: as §1

[3] = system: CAL-85-1; assay: as above; conditions: incubation time: 72 h
Summary of the method: as §1

[4] = system: HCC1599; assay: as above; conditions: incubation time: 72 h
Summary of the method: as §1

[5] = system: Hs578T; assay: as above; conditions: incubation time: 72 h
Summary of the method: as §1

[6] = system: MDA-MB-231; assay: as above; conditions: incubation time: 72 h
Summary of the method: as §1

[7] = system: MDA-MB-468; assay: as above; conditions: incubation time: 72 h
Summary of the method: as §1

[8] = system: CAL-148; assay: as above; conditions: incubation time: 72 h; remark: listed apart in the source
Summary of the method: as §1

[9] = system: CAL-85-1; assay: as above; conditions: incubation time: 72 h; remark: listed apart in the source
Summary of the method: as §1

[10] = system: HCC1143; assay: as above; conditions: 10 nM; incubation time: 72 h
Summary of the method: as §1

[11] = system: SK-BR-3; assay: as above; conditions: incubation time: 72 h
Summary of the method: as §1

[12] = system: BT-474; assay: normalised viability (% of control), CellTiter-Blue; higher = more viable cells (100 = DMSO, 0 = benzethonium chloride kill control); conditions: 1 nM; incubation time: 72 h
Procedure: (§2)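 DSRT, CellTiter-Blue viability, 72 h incubation. Signal is normalised to DMSO and benzethonium chloride controls. Value is the normalised response at dose 1.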

[13] = system: BT-549; assay: as above; conditions: incubation time: 72 h
Procedure: as §2

[14] = system: CAL-120; assay: as above; conditions: incubation time: 72 h
Procedure: as §2

[15] = system: CAL-148; assay: as above; conditions: incubation time: 72 h
Procedure: as §2

[16] = system: CAL-51; assay: as above; conditions: incubation time: 72 h
Procedure: as §2

[17] = system: CAL-85-1; assay: as above; conditions: incubation time: 72 h
Procedure: as §2

[18] = system: DU-4475; assay: as above; conditions: incubation time: 72 h
Procedure: as §2

[19] = system: HCC1143; assay: as above; conditions: 1 nM; incubation time: 72 h
Procedure: as §2

[20] = system: HCC1599; assay: as above; conditions: incubation time: 72 h
Procedure: as §2

[21] = system: HCC1937; assay: as above; conditions: incubation time: 72 h
Procedure: as §2

[22] = system: HDQ-P1; assay: as above; conditions: incubation time: 72 h
Procedure: as §2

[23] = system: Hs578T; assay: as above; conditions: incubation time: 72 h
Procedure: as §2

[24] = system: MDA-MB-231; assay: as above; conditions: incubation time: 72 h
Procedure: as §2

[25] = system: MDA-MB-436; assay: as above; conditions: incubation time: 72 h
Procedure: as §2

[26] = system: MDA-MB-453; assay: as above; conditions: incubation time: 72 h
Procedure: as §2

[27] = system: MDA-MB-468; assay: as above; conditions: incubation time: 72 h
Procedure: as §2

[28] = system: MFM-223; assay: as above; conditions: incubation time: 72 h
Procedure: as §2

[29] = system: SK-BR-3; assay: as above; conditions: incubation time: 72 h
Procedure: as §2

[30] = system: MDA-MB-453; conditions: 72 h
Summary of the method: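 Compound dissolved in 5 µl medium was placed in 384-well plates before 20 µl of breast cancer cell suspension was added, and the plates were incubated for 72 h. Cells then received 2.5 µl CellTiter-Blue for 2 h at 37 °C, and fluorescence was read at 560/590 nm. EC50 values come from percent-inhibition dose-response fits that were censored at the highest concentration, with plates normalised to vehicle and a positive kill control and rows with a zero drug sensitivity score excluded.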

O=C(O)CCCc1ccc(N(CCCl)CCCl)cc1 [Chlorambucil]
normalised viability ([1]; 10000 nM): 118% | normalised viability ([2]; 100 nM): 103% | normalised viability ([3]; 100 nM): 98.6% | normalised viability ([4]; 10000 nM): 92.5% | normalised viability ([5]; 10000 nM): 87.5% | normalised viability ([6]; 10000 nM): 88.4% | normalised viability ([7]; 10000 nM): 81.2% | normalised viability ([8]; 3 nM): 98% | normalised viability ([9]; 3 nM): 101% | normalised viability [10]: 83.5% | normalised viability ([11]; 10 nM): 113% | normalised viability [12]: 89.7% | normalised viability ([13]; 1 nM): 96.7% | normalised viability ([14]; 1 nM): 96.6% | normalised viability ([15]; 1 nM): 113% | normalised viability ([16]; 1 nM): 111% | normalised viability ([17]; 1 nM): 97.4% | normalised viability ([18]; 1 nM): 102% | normalised viability [19]: 105% | normalised viability ([20]; 1 nM): 117% | normalised viability ([21]; 1 nM): 97.6% | normalised viability ([22]; 1 nM): 111% | normalised viability ([23]; 1 nM): 99.4% | normalised viability ([24]; 1 nM): 106% | normalised viability ([25]; 1 nM): 105% | normalised viability ([26]; 1 nM): 109% | normalised viability ([27]; 1 nM): 95.2% | normalised viability ([28]; 1 nM): 94.3% | normalised viability ([29]; 1 nM): 101%

CO[C@H]1C[C@@H]2CC[C@@H](C)[C@@](O)(O2)C(=O)C(=O)N2CCCC[C@H]2C(=O)O[C@H]([C@H](C)C[C@@H]2CC[C@@H](OCCO)[C@H](OC)C2)CC(=O)[C@H](C)/C=C(\C)[C@@H](O)[C@@H](OC)C(=O)[C@H](C)C[C@H](C)/C=C/C=C/C=C/1C [Everolimus]
EC50, CellTiter-Blue viability [30]: 0.4 nM | normalised viability ([1]; 1000 nM): 65% and 59.1% | normalised viability ([2]; 10 nM): 44.4% and 37.9% | normalised viability ([3]; 10 nM): 68.8% and 61.3% | normalised viability ([4]; 1000 nM): 86.7% and 68.9% | normalised viability ([5]; 1000 nM): 53.2% and 41.5% | normalised viability ([6]; 1000 nM): 73.9% and 77.5% | normalised viability ([7]; 1000 nM): 56.8% and 64.2% | normalised viability ([8]; 0.3 nM): 77.8% and 72.2% | normalised viability ([9]; 0.3 nM): 73.8% and 72% | normalised viability ([11]; 1 nM): 80.9% and 64.3% | normalised viability ([13]; 0.1 nM): 81% and 93% | normalised viability ([14]; 0.1 nM): 97.4% and 80.8% | normalised viability ([15]; 0.1 nM): 93.9% and 95.7% | normalised viability ([16]; 0.1 nM): 99.3% and 104% | normalised viability ([17]; 0.1 nM): 89.2% and 76.6% | normalised viability ([18]; 0.1 nM): 106% and 105% | normalised viability ([20]; 0.1 nM): 101% | normalised viability ([21]; 0.1 nM): 58% and 70.5% | normalised viability ([22]; 0.1 nM): 87.3% and 89.8% | normalised viability ([23]; 0.1 nM): 58.9% and 73.8% | normalised viability ([24]; 0.1 nM): 94.9% and 73.3% | normalised viability ([25]; 0.1 nM): 104% and 86.3% | normalised viability ([26]; 0.1 nM): 93.7% and 90% | normalised viability ([27]; 0.1 nM): 105% and 87.7% | normalised viability ([28]; 0.1 nM): 85% and 84% | normalised viability ([29]; 0.1 nM): 95.7% and 89.7%

CNNCc1ccc(C(=O)NC(C)C)cc1 [Procarbazine]
normalised viability ([1]; 10000 nM): 113% | normalised viability ([2]; 100 nM): 99% | normalised viability ([3]; 100 nM): 89.2% | normalised viability ([4]; 10000 nM): 90% | normalised viability ([5]; 10000 nM): 114% | normalised viability ([6]; 10000 nM): 109% | normalised viability ([7]; 10000 nM): 112% | normalised viability ([8]; 3 nM): 103% | normalised viability ([9]; 3 nM): 95.6% | normalised viability [10]: 93.1% | normalised viability ([11]; 10 nM): 110% | normalised viability [12]: 92.5% | normalised viability ([13]; 1 nM): 113% | normalised viability ([14]; 1 nM): 97% | normalised viability ([15]; 1 nM): 108% | normalised viability ([16]; 1 nM): 100% | normalised viability ([17]; 1 nM): 92.4% | normalised viability ([18]; 1 nM): 110% | normalised viability [19]: 103% | normalised viability ([20]; 1 nM): 84.6% | normalised viability ([21]; 1 nM): 78.9% | normalised viability ([22]; 1 nM): 120% | normalised viability ([23]; 1 nM): 107% | normalised viability ([24]; 1 nM): 112% | normalised viability ([25]; 1 nM): 99.3% | normalised viability ([26]; 1 nM): 110% | normalised viability ([27]; 1 nM): 104% | normalised viability ([28]; 1 nM): 102% | normalised viability ([29]; 1 nM): 106%
